In patent US7582639B2, “N-deacetylthiocolchicine derivatives, their use and pharmaceutical formulations containing them” (priority 2004, dated 2009):
Where two headings read alike, the source gives them in different places.

Assays:
Experiment in all cases: cells
Format in all cases: cell-based
[1] = test system: MCF7-R (MDR+); details: after 72 hours, concentration that inhibits cell growth by 50% compared with non treated cells, read-out: IC50 (nM) ± S.E. MCF7-R (MDR+)
Description: (§1) The activity of the compounds of formula I was evaluated on a large number of tumour cells expressing different resistance.
(§2) Cytotoxic activity was evaluated according to the procedure described by M. C.

[2] = test system: Widr (colon); details: after 72 hours, concentration that inhibits cell growth by 50% compared with non treated cells, read-out: IC50 (nM) ± S.E. Widr (colon)
Description: as §1, §2

[3] = test system: MCF7 (breast); details: after 72 hours, concentration that inhibits cell growth by 50% compared with non treated cells, read-out: IC50 (nM) ± S.E. MCF7 (breast)
Description: as §1, §2

[4] = test system: A2780 (Ovarian); details: after 72 hours, concentration that inhibits cell growth by 50% compared with non treated cells, read-out: IC50 (nM) ± S.E. A2780 (Ovarian)
Description: as §1, §2

[5] = test system: A2780/pt (resistant to tocisplatin); details: after 72 hours, concentration that inhibits cell growth by 50% compared with non treated cells, read-out: IC50 (nM) ± S.E. A2780/pt (resistant to tocisplatin)
Description: as §1, §2

[6] = test system: A2780/top (resistant to topotecan); details: after 72 hours, concentration that inhibits cell growth by 50% compared with non treated cells, read-out: IC50 (nM) ± S.E. A2780/top (resistant to topotecan)
Description: as §1, §2

[7] = test system: A2780/dx (Pgp+); details: after 72 hours, concentration that inhibits cell growth by 50% compared with non treated cells, read-out: IC50 (nM) ± S.E. A2780/dx (Pgp+)
Description: as §1, §2

Compound | IC50 [1] [nM] | IC50 [2] [nM] | IC50 [3] [nM] | IC50 [4] [nM] | IC50 [5] [nM] | IC50 [6] [nM] | IC50 ([1]; Homo sapiens, MCF7R) [nM] | IC50 ([2]; Homo sapiens, WiDr) [nM] | IC50 ([3]; Homo sapiens, MCF7) [nM] | IC50 ([4]; Homo sapiens, A2780) [nM] | IC50 ([5]; Homo sapiens, A2780) [nM] | IC50 ([6]; Homo sapiens, A2780) [nM] | IC50 [7] [nM]
3,5-Benzenedicarboxylic acid bis-(N-deacetylthiocolchicine)amide [E.g. 3] | 108 ± 14 | 48 ± 24 | 1.5 ± 0.1 | 8 ± 5.6 | 23 ± 4.6 | 5.5 ± 0.1 |  |  |  |  |  |  | 
COc1cc2c(c(OC)c1OC)-c1ccc(SC)c(=O)cc1[C@@H](NC(=O)c1cncc(C(=O)N[C@H]3CCc4cc(OC)c(OC)c(OC)c4-c4ccc(SC)c(=O)cc43)c1)CC2 [E.g. 1, 3,5-Pyridinedicarboxylic acid bis-(N-deacetylthiocolchicine)amide] |  |  |  |  |  |  | 72 ± 4.3 | 25 ± 26.4 | 0.7 ± 0.1 | 3 ± 0.4 | 3.7 ± 0.6 | 6.9 ± 4.2 | 806 ± 286
N-Deacetylthiocolchicine 1,4-phenylenediamine bis-urea [E.g. 4] |  | 650 ± 40 |  | 252 ± 38 | 331 ± 63 | 152 ± 36 |  |  |  |  |  |  | 
trans-1,4-Cyclohexanedicarboxylic acid bis-(N-deacetylthiocolchicine)amide [E.g. 2] | 135 ± 11 | 230 ± 166 | 14 ± 0.9 | 37 ± 5 | 26 ± 1 | 32 ± 24 |  |  |  |  |  |  | 
